Test results: patent publication US20250230154A1, “COMPOUND HAVING SHP2 PROTEIN DEGRADING ACTIVITY, AND MEDICAL USES THEREOF” (UBIX THERAPEUTICS, INC., priority 2021, published 2025)

Target: T1, SHP2 protein (Homo sapiens, UniProt Q06124)
T1 sequence (Q06124 1-593): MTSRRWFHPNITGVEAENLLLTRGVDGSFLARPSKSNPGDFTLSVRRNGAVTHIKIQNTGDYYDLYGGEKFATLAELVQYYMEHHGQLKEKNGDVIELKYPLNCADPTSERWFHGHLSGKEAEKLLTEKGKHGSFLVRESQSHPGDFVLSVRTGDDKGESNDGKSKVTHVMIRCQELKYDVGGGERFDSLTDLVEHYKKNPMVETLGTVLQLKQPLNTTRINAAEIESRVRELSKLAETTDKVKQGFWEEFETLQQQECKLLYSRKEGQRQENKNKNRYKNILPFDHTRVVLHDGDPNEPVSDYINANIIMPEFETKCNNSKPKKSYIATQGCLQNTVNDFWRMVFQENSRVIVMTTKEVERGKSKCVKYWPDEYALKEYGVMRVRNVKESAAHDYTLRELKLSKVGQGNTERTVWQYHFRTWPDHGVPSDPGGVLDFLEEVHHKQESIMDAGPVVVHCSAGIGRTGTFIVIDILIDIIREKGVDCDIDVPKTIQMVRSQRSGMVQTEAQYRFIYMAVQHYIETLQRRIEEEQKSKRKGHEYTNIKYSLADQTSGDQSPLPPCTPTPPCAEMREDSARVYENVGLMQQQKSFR
Experiment: Measurement of SHP2 protein degradation in MV-4-11 cells (western blotting)
Assay type: cell-based
Design: endogenous in cells; host or cells: MV-4-11
Conditions: MV-4-11 cells, 24 hours
Experimental: Experimental Example 2: Measurement of SHP2 Protein Degradation in MV-4-11 Cells
MV-4-11 cells were treated with the synthesized Example compound, and the amount of SHP2 protein present in the cells was measured using western blotting detection. The protocol of the experiment conducted using MV-4-11 cells was as follows:
[Culture] MV-4-11 cells resuspended in IMDM MEDIUM (Hyclone, SH30228.01) containing 5% FBS (Hyclone, SV30207.02) and 1% Penicillin-streptomycin (Welgene, LS 202-02) were seeded at a density of 1×10^6/mL/well in a 12-well plate in an amount of 1 ml each.
[Compound treatment] The 12-well plate was treated as follows: Cells were treated with compounds at a final concentration of […] made by serial dilution of 10 mM stock with DMSO in 1/100 increments […]. After 24 hours, cells were harvested. For the negative control group, DMSO diluted 1/100 to the media (3 mL DMSO+297 mL media) was added.
[Harvest] Each well was collected in a 1.5 mL microtube by pipetting with a 1 mL pipette and centrifuged (500 g, 5 min, 4° C.). The supernatant was removed. It was washed with PBS, and then centrifuged again (500 g, 5 min, 4° C.). Thereafter, the supernatant was removed to prepare a pellet.
[Cell Lysis and Sample preparation] Lysis buffer was prepared as follows: […] of RIPA buffer (Biosesang, RC2038-050-00)+0.5 mM PMSF (SIGMA, P7626)+1× Protease/Phosphatase Inhibitor (Cell signaling, 5872S) per well was added and placed on ice for 30 minutes (vortexing at 0 and 30 minutes, respectively). After sonication process (10 seconds pulse, 30 seconds rest, 5 cycles, 70% amplification), centrifugation (15000 g, 15 min, 4° C.) was performed, and then only the supernatant was taken and transferred to a microtube. The sample was diluted ¼ with RIPA buffer in a 96-well plate, and mixed with A:B=50:1 of the BCA Protein Assay Kit (iNtRON, 21071). […] each of the mixture was left at 37° C. for 30 minutes, and cooled for 10 minutes. Then, absorbance was measured at 562 nm with the SYNERGY H1 microplate reader from BioTek. After making a sample by quantifying the protein with the measured value, boiling was performed at 70° C. for 10 minutes. At this time, the sample buffer used was a mixture of NuPAGE or Bolt 4× sample buffer (Invitrogen) and each 10× sample reducing agent according to the gel to be used, and RIPA buffer was used for protein dilution.
[Western blotting detection method] The same amount of sample was loaded on NuPAGE or Bolt Bis-tris 4-12% gradient gel and run (200 V, 35 minutes). It was transferred to 0.2 mm NC membrane with Trans-blot Turbo (BIO-RAD) (1.3 A constant, 25 V limit, 15 minutes). Blocking was performed at room temperature for 1 hour with Skim milk or Intercept Blocking Buffer (LI-COR, 927-60001):0.1% TBST=1:1. Anti-SHPTP2 Mouse (1:500 in 2% BSA/0.2% TBST, size: 70 kDa, Santacruz sc-7384) was incubated overnight at 4° C., and Anti-GAPDH Rabbit (1:2,000 in 2% BSA/0.2% TBST, size: 37 kDa, CST #2118) was incubated at room temperature for 1 hour 30 minutes or 3 hours. It was washed 3 times for 5 minutes each with 0.2% TBST washing buffer. Secondary antibody Anti-Rabbit IgG (1:5,000 in 2% BSA/0.2% TBST, CST), IRDye® 680RD Goat anti-Rabbit IgG Secondary Antibody (1:10,000 in 2% BSA/0.2% TBST, LI-COR 926-68071) were added and incubated for 45 minutes on a rocker at room temperature. It was washed 5 times for 5 minutes each with 0.2% TBST washing buffer and detected with LI-COR's Odyssey. At this time, SHPTP2 was detected using SuperSignal West Pico PLUS Chemiluminescent Substrate, and house-keeping genes were also detected.
In the results of Table 4 below, Compounds 1-7, 13-19, and 21-26 are results in KYSE-520 cells, and the others are results in MV-4-11 cells.

Row | Structure (SMILES) | SHP2 degradation (%) 10 nM [%] | SHP2 degradation (%) 100 nM [%] | SHP2 degradation (%) 1000 nM [%]
1 | Cc1ncsc1-c1ccc(CNC(=O)[C@@H]2C[C@@H](O)CN2C(=O)[C@@H](NC(=O)C2(F)CC2)C(C)(C)C)c(OCC2CCN(C(=O)CC(=O)Nc3cccc(Sc4cnc(N5CCC(C)(CN)CC5)cn4)c3Cl)CC2)c1 [Example 31, (2S,4R)—N-(2-((1-(3-((3-((5-(4-(aminomethyl)-4-methylpiperidin-1-yl)pyrazin-2-yl)thio)-2-chlorophenyl)amino)-3-oxopropanoyl)piperidin-4-yl)methoxy)-4-(4-methylthiazol-5-yl)benzyl)-1-((S)-2-(1-fluorocyclopropane-1-carboxamido)-3,3-dimethylbutanoyl)-4-hydroxypyrrolidine-2-carboxamide] | 76 | 97 | 97.5
2 | COC(=O)[C@@H]1CN(C(=O)CC(=O)Nc2cccc(Sc3cnc(N4CCC(C)(CN)CC4)cn3)c2Cl)CCN1CCOc1cc(-c2scnc2C)ccc1CNC(=O)[C@@H]1C[C@@H](O)CN1C(=O)[C@@H](NC(=O)C1(F)CC1)C(C)(C)C [Example 66, (S)-methyl 4-(3-((3-((5-(4-(aminomethyl)-4-methylpiperidin-1-yl)pyrazin-2-yl)thio)-2-chlorophenyl)amino)-3-oxopropanoyl)-1-(2-(2-(((2S,4R)-1-((S)-2-(1-fluorocyclopropane-1-carboxamido)-3,3-dimethylbutanoyl)-4-hydroxypyrrolidine-2-carboxamido)methyl)-5-(4-methylthiazol-5-yl)phenoxy)ethyl)piperazine-2-carboxylate] | 79 | 98.1 | –
3 | Cc1ncsc1-c1ccc(CNC(=O)[C@@H]2C[C@@H](O)CN2C(=O)[C@@H](NC(=O)C2(F)CC2)C(C)(C)C)c(OCCN2CCN(C(=O)CC(=O)Nc3cccc(Sc4cnc(N5CCC(C)(N)CC5)cn4)c3Cl)CC2)c1 [Example 53, (2S,4R)—N-(2-(2-(4-(3-((3-((5-(4-amino-4-methylpiperidin-1-yl)pyrazin-2-yl)thio)-2-chlorophenyl)amino)-3-oxopropanoyl)piperazin-1-yl)ethoxy)-4-(4-methylthiazol-5-yl)benzyl)-1-((S)-2-(1-fluorocyclopropane-1-carboxamido)-3,3-dimethylbutanoyl)-4-hydroxypyrrolidine-2-carboxamide] | 83.9 | 97.8 | –
4 | Cc1ncsc1-c1ccc(CNC(=O)[C@@H]2C[C@@H](O)CN2C(=O)[C@@H](NC(=O)C2(F)CC2)C(C)(C)C)c(OCCCC2CCN(CCC(=O)Nc3cccc(Sc4cnc(N5CCC(C)(CN)CC5)cn4)c3Cl)CC2)c1 [Example 75, (2S,4R)—N-(2-(3-(1-(3-((3-((5-(4-(aminomethyl)-4-methylpiperidin-1-yl)pyrazin-2-yl)thio)-2-chlorophenyl)amino)-3-oxopropyl)piperidin-4-yl)propoxy)-4-(4-methylthiazol-5-yl)benzyl)-1-((S)-2-(1-fluorocyclopropane-1-carboxamido)-3,3-dimethylbutanoyl)-4-hydroxypyrrolidine-2-carboxamide] | 19.5 | 75.5 | 93.5
5 | CC(=O)N[C@H](C(=O)N1C[C@H](O)C[C@H]1C(=O)NCc1ccc(-c2scnc2C)cc1OCCN1CCN(C(=O)CC(=O)Nc2cccc(Sc3cnc(N4CCC(C)(CN)CC4)cn3)c2Cl)CC1)C(C)(C)C [Example 57, (2S,4R)-1-((S)-2-acetamido-3,3-dimethylbutanoyl)-N-(2-(2-(4-(3-((3-((5-(4-(aminomethyl)-4-methylpiperidin-1-yl)pyrazin-2-yl)thio)-2-chlorophenyl)amino)-3-oxopropanoyl)piperazin-1-yl)ethoxy)-4-(4-methylthiazol-5-yl)benzyl)-4-hydroxypyrrolidine-2-carboxamide] | 95.7 | 99.8 | 99.7
6 | Cc1ncsc1-c1ccc(CNC(=O)[C@@H]2C[C@@H](O)CN2C(=O)[C@@H](NC(=O)C2(F)CC2)C(C)(C)C)c(OCCC2CCN(C(=O)CC(=O)Nc3cccc(Sc4cnc(N5CCC(C)(CN)CC5)cn4)c3Cl)CC2)c1 [Example 36, (2S,4R)—N-(2-(2-(1-(3-((3-((5-(4-(aminomethyl)-4-methylpiperidin-1-yl)pyrazin-2-yl)thio)-2-chlorophenyl)amino)-3-oxopropanoyl)piperidin-4-yl)ethoxy)-4-(4-methylthiazol-5-yl)benzyl)-1-((S)-2-(1-fluorocyclopropane-1-carboxamido)-3,3-dimethylbutanoyl)-4-hydroxypyrrolidine-2-carboxamide] | 83.0 | 93.5 | 93.5
7 | CC(=O)N[C@H](C(=O)N1C[C@H](O)C[C@H]1C(=O)NCc1ccc(-c2scnc2C)cc1OCCCC1CCN(C(=O)CC(=O)Nc2cccc(Sc3cnc(N4CCC(C)(CN)CC4)cn3)c2Cl)CC1)C(C)(C)C [Example 43, (2S,4R)-1-((S)-2-acetamido-3,3-dimethylbutanoyl)-N-(2-(3-(1-(3-((3-((5-(4-(aminomethyl)-4-methylpiperidin-1-yl)pyrazin-2-yl)thio)-2-chlorophenyl)amino)-3-oxopropanoyl)piperidin-4-yl)propoxy)-4-(4-methylthiazol-5-yl)benzyl)-4-hydroxypyrrolidine-2-carboxamide] | 80.0 | 96.5 | –
8 | Cc1ncsc1-c1ccc(CNC(=O)[C@@H]2C[C@@H](O)CN2C(=O)[C@@H](NC(=O)C2(F)CC2)C(C)(C)C)c(OCCC2CCN(CCC(=O)Nc3cccc(Sc4cnc(N5CCC(C)(CN)CC5)cn4)c3Cl)CC2)c1 [Example 74, (2S,4R)—N-(2-(2-(1-(3-((3-((5-(4-(aminomethyl)-4-methylpiperidin-1-yl)pyrazin-2-yl)thio)-2-chlorophenyl)amino)-3-oxopropyl)piperidin-4-yl)ethoxy)-4-(4-methylthiazol-5-yl)benzyl)-1-((S)-2-(1-fluorocyclopropane-1-carboxamido)-3,3-dimethylbutanoyl)-4-hydroxypyrrolidine-2-carboxamide] | 29.0 | 80.5 | 94.5
